pIC50: −log10 of the molar value.

As a reminder, the Km is the concentration of substrate that gives half-maximal velocity. The term pIC50 denotes the IC50 on a negative log10 scale, so that one unit is a factor of ten. Low readings indicate a large IC50, high ones a small IC50.

Holding throughout (assay type): biochemical
Test [1] has as its target T1, D14 (Oryza sativa, UniProt Q10QA5).
T1 sequence (Q10QA5 54-318): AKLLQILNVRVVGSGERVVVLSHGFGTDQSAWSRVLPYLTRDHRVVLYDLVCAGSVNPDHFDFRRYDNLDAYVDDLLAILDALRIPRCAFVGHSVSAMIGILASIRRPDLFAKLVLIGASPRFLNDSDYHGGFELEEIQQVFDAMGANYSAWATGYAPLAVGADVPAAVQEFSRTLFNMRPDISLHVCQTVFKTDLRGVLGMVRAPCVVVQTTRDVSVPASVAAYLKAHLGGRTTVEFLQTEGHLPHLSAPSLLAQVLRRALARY
The test is described as follows: fluorogenic hydrolysis, ex […] nm, em […] nm. The following applies: read-out: Km^YLG; 100 mM PBS pH 7.3, 0.1% DMSO, 30 °C; no inhibitor.

Test [2] deals with T2, ShHTL7 (Striga hermonthica, UniProt A0A0M3PNA2).
T2 sequence (A0A0M3PNA2 1-271): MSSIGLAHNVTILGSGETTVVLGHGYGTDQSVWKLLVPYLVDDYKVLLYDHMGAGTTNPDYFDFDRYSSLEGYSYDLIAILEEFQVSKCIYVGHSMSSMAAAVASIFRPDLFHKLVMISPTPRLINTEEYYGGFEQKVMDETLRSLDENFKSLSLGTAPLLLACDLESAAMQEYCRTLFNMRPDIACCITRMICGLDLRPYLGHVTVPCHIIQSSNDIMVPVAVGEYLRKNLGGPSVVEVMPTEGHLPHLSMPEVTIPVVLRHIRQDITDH
Kind of test: inhibition of YLG hydrolysis, fluorescence.

Test [3] has as its target T1, D14. Kind of test: inhibition of YLG hydrolysis, fluorescence.

On to `CCOC(=O)c1ccccc1-c1c2ccc(=O)cc-2oc2cc(OC3C=C(C)C(=O)O3)ccc12` (centres unmarked) [Yoshimulactone Green], for which the Km in test [1] worked out at 1.84 µM.
Take `CC1=C[C@@H](O/C=C2/C(=O)O[C@@H]3c4ccccc4C[C@H]23)OC1=O` [GR24]: the pIC50 in test [2] was 6.82; in test [3] it was 5.24.
In test [3], `O=C(N1CCc2ccccc21)n1nccn1` [compound 26, indolin-1-yl(2H-1,2,3-triazol-2-yl)methanone] gave a pIC50 of 5.10.
`O=C(N1CCc2ccccc21)n1ccnn1` [compound 26, indolin-1-yl(1H-1,2,3-triazol-1-yl)methanone] had a pIC50 in test [3] of 5.74.
